Reference: ChEMBL document CHEMBL4190399, “Spiro[pyrrolidine-3,3'-oxindoles] as 5-HT7 receptor ligands” (Bioorg Med Chem Lett, 2018)

Columns and labels:
Homo sapiens [1] = species on record: Homo sapiens; test: Selectivity index, ratio of Ki for human 5-HT6 receptor expressed in HEK293 cell membranes to Ki for human 5-HT7b receptor expressed in HEK293 cell membranes; format: cell-based
[2] = molecular target: 5-hydroxytryptamine receptor 7 (Homo sapiens, UniProt P34969); test: Displacement of [3H]-5-CT from human 5-HT7b receptor expressed in HEK293 cell membranes after 1 hr at 37 degC by microbeta scintillation counting analysis
Homo sapiens [3] = species on record: Homo sapiens; test: Selectivity index, ratio of Ki for human 5-HT1A receptor expressed in HEK293 cell membranes to Ki for human 5-HT7b receptor expressed in HEK293 cell membranes; format: cell-based
[4] = molecular target: 5-hydroxytryptamine receptor 2A (Homo sapiens, UniProt P28223); test: Displacement of [3H]-Ketanserin from human 5-HT2A receptor expressed in CHO-K1 cell membranes after 1.5 hrs by microbeta scintillation counting analysis
[5] = molecular target: 5-hydroxytryptamine receptor 6 (Homo sapiens, UniProt P50406); test: Displacement of [3H]-LSD from human 5-HT6 receptor expressed in HEK293 cell membranes after 1 hr at 37 degC by microbeta scintillation counting analysis
[6] = molecular target: T1, 5-hydroxytryptamine receptor 1A (Homo sapiens, UniProt P08908); test: Displacement of [3H]-8-OH-DPAT from human 5-HT1A receptor expressed in HEK293 cell membranes after 1 hr by microbeta scintillation counting analysis
T1 sequence (P08908 whole entry): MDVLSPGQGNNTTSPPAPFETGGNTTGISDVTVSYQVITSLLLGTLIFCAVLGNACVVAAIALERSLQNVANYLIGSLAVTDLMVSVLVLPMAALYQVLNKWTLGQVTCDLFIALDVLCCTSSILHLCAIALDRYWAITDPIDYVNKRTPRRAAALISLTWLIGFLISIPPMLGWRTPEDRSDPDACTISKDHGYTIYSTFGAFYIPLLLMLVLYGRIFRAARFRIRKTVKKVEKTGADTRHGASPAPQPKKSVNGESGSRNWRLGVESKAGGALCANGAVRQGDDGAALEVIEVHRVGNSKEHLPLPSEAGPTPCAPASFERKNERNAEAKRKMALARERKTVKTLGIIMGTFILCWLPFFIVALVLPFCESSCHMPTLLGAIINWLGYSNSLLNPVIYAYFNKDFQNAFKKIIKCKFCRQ

Homo sapiens [7] = species on record: Homo sapiens; test: Selectivity index, ratio of Ki for human 5-HT2A receptor expressed in CHO-K1 cell membranes to Ki for human 5-HT7b receptor expressed in HEK293 cell membranes; format: cell-based

5-hydroxytryptamine receptor 7, sequence (P34969 whole entry): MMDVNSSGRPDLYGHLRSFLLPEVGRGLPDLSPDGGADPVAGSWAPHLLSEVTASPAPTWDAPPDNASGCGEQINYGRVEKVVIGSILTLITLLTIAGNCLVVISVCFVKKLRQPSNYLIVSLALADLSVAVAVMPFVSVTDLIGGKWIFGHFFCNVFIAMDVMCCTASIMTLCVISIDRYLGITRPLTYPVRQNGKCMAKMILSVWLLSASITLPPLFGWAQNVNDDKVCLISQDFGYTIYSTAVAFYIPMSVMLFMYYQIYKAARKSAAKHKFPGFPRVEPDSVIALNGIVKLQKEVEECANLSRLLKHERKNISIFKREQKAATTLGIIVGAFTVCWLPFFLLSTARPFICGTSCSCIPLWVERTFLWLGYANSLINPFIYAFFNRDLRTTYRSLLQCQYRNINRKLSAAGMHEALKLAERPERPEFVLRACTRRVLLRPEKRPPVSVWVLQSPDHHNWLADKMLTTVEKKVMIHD
5-hydroxytryptamine receptor 2A, sequence (P28223 whole entry): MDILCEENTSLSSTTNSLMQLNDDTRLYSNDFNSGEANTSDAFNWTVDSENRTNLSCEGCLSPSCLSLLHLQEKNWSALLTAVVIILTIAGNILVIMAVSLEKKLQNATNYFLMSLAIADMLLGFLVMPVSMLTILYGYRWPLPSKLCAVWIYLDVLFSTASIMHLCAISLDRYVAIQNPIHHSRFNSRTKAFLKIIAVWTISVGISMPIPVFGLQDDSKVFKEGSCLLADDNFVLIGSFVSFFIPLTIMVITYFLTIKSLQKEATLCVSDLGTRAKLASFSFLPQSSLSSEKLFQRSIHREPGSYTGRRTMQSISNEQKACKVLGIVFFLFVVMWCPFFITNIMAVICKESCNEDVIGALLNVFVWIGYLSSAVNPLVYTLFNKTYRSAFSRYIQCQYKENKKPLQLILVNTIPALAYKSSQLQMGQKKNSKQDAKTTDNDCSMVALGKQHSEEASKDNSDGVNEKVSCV
5-hydroxytryptamine receptor 6, sequence (P50406 whole entry): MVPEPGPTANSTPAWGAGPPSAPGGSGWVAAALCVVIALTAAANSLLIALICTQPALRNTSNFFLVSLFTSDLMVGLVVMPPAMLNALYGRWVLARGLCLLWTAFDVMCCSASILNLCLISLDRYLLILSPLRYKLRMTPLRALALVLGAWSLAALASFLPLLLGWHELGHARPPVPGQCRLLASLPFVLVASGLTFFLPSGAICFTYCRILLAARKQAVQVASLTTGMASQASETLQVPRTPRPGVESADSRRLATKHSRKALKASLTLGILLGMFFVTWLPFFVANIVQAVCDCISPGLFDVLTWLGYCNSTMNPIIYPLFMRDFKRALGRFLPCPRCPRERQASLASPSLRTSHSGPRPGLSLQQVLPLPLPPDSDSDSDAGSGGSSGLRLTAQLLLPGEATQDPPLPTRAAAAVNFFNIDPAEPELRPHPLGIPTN

Row | Structure (SMILES) | Ratio Ki (Homo sapiens [1]) | Ki [2] [µM] | Ratio Ki (Homo sapiens [3]) | Ki [4] [µM] | Ki [5] [µM] | Ki [6] [µM] | Ratio Ki (Homo sapiens [7])
1 | O=C1Nc2ccccc2C12CCN(CCN1CCC(c3ccc(F)cc3)CC1)C2 (centres undefined) | 19.2 | 0.275 | 189 | 0.259 | 5.28 | 52 | 0.9
2 | O=C1Nc2ccccc2C12CCN(CCN1CCN(c3ccc(Cl)cc3)CC1)C2 (centres undefined) | 163 | 0.029 | 130 | 0.068 | 4.74 | 3.76 | 2.3
3 | O=C1Nc2ccccc2C12CCN(CCN1CCN(c3ccc(Cl)c(Cl)c3)CC1)C2 (centres undefined) | 29.8 | 0.038 | 107 | 0.27 | 1.13 | 4.05 | 7.1
4 | O=C1Nc2ccccc2C12CCN(CCN1CCC(Oc3ccc(Cl)cc3)CC1)C2 (centres undefined) | 14 | 0.121 | 114 | 0.343 | 1.69 | 13.8 | 2.8
5 | O=C1Nc2ccccc2C12CCN(CCCN1CCN(c3ccc(Cl)cc3)CC1)C2 (centres undefined) | 83 | 0.067 | 43.1 | 0.715 | 5.56 | 2.89 | 10.7
6 | O=C1Nc2ccccc2C12CCN(CCN1CCN(c3ccccc3)CC1)C2 (centres undefined) | 65.6 | 0.1 | 60.1 | 0.496 | 6.56 | 6 | 5
7 | O=C1Nc2ccccc2C12CCN(CCN1CC=C(c3ccc(F)cc3)CC1)C2 (centres undefined) | 146 | 0.043 | 91.8 | 0.075 | 6.27 | 3.95 | 1.7
8 | O=C1Nc2ccccc2C12CCN(CCN1CCC(c3ccc(Cl)cc3)CC1)C2 (centres undefined) | 16.1 | 0.284 | 52.5 | 0.404 | 4.58 | 14.9 | 1.4
9 | O=C(c1ccc(Cl)cc1)N1CCN(CCN2CCC3(C2)C(=O)Nc2ccccc23)CC1 (centres undefined) | 14.6 | 0.529 | 91.2 | 17.3 | 7.75 | 48.2 | 32.8
10 | O=C1Nc2ccccc2C12CCN(CCN1CCN(c3cccc(Cl)c3)CC1)C2 (centres undefined) | 36.5 | 0.055 | 48.9 | 0.351 | 2 | 2.69 | 6.4
11 | O=C1Nc2ccccc2C12CCN(CCN1CCN(c3ccc(F)cc3)CC1)C2 (centres undefined) | 226 | 0.021 | 674 | 0.059 | 4.74 | 14.2 | 2.8
12 | O=C1Nc2ccccc2C12CCN(CCN1CCN(c3ccccc3Cl)CC1)C2 (centres undefined) | 11.6 | 0.245 | 4.5 | 0.452 | 2.84 | 1.1 | 1.8
